This is an account of results in US12617790B2, “Mitragynine analogs and uses thereof” (Memorial Sloan-Kettering Cancer Center, priority 2015, dated 2026).

Test [1] has as its target T1, DOR-1 (Mus musculus, UniProt P32300).
T1 construct: expressed in transfected cells; host or cells: CHO
Briefly: [35S]GTPγS functional assay, DOR-1 transfected cell membranes. Format: biochemical. Conditions: antagonism of 100 nM DPDPE; read-out: DOR-1 IC50. On the technique in general: GTPγS resists hydrolysis and so accumulates on activated G proteins.

Test [2] deals with T1, DOR-1. Description: Competition binding against 125I-IBNtxA in DOR-1/CHO membranes. Conditions: for Ki: 125I-IBNtxA (0.1 nM), CHO membranes, cloned mouse receptor, read-out: Affinity (Ki nM) DOR-1.
The target of test [3] is T2, MOR-1 (Mus musculus, UniProt P42866).
T2 construct: expressed in transfected cells; host or cells: CHO
Description: Competition binding against 125I-IBNtxA in MOR-1/CHO membranes.

The target in test [4] is T3, KOR-1 (Mus musculus, UniProt P33534).
T3 construct: expressed in transfected cells; host or cells: CHO
Briefly: Competition binding against 125I-IBNtxA in KOR-1/CHO membranes. Conditions: 125I-IBNtxA (0.1 nM), CHO membranes, cloned mouse receptor; read-out: Affinity (Ki nM) KOR-1.

Test [5] has as its system CD1 mice. Description: Radiant heat tail flick analgesia, sc, CD1 mice. The test is classed as in vivo. The conditions noted are these: Mus musculus, 0.25 h, ED50, cumulative dose-response, tail flick 15 min after sc dose.
Test [6] has as its target T2, MOR-1. Briefly: [35S]GTPγS functional assay, MOR-1 transfected cell membranes. The test is classed as biochemical. Further details: Emax: dose or concentration left out as unconfirmed. Conditions: for pEC50: agonist stimulation of [35S]GTPγS binding, read-out: MOR-1 EC50; for Emax: read-out: MOR-1 Emax (%).

pEC50, pIC50, pKi: −log10 of the molar value. Read-outs that look alike come from different tables or passages of the source. Some results are limits rather than exact numbers.

Broadly, the pIC50 is the IC50 on a negative log10 scale, so that one unit is a factor of ten. One may read the pKi as the negative decadic logarithm of the Ki, by convention in mol/L. Consider `Oc1ccc2c3c1O[C@H]1c4[nH]c5ccccc5c4C[C@@]4(O)[C@@H](C2)N(CC2CC2)CC[C@]314` [NTI, Naltrindole, reference compound], for which the pIC50 in test [1] was 9.14. The pKi in test [2] is 9.34.

A word on the Ki: it is the equilibrium dissociation constant of an inhibitor or competing ligand from its target. As to `CC[C@@H]1CN2CC[C@@]3(C(=O)c4c(OC)cccc4N3C)C2C[C@@H]1/C(=C\OC)C(=O)OC` (stereo partly drawn) [VM1503, (E)-methyl 2-((1'S,6'S,7'S)-6′-ethyl-4-methoxy-1-methyl-3-oxo-3′,5′,6′,7′,8′,8a′-hexahydro-2′H-spiro[indoline-2,1′-indolizine]-7′-yl)-3-methoxyacrylate], the Ki in test [2] and in test [4] was more than 1000 nM throughout. Moreover, the pKi in test [3] is 6.43.

Take `CC[C@@H]1CN2CC[C@@]3(C(=O)c4c(OC)cccc4N3Cc3ccccc3)C2C[C@@H]1/C(=C\OC)C(=O)OC` (stereo partly drawn) [VM1505, (E)-methyl 2-((1'S,6'S,7'S)-1-benzyl-6′-ethyl-4-methoxy-3-oxo-3′,5′,6′,7′,8′,8a′-hexahydro-2′H-spiro[indoline-2,1′-indolizine]-7′-yl)-3-methoxyacrylate]: the Ki in test [2] came out at 258 nM; in test [4], 136 nM. Moreover, the negative logarithm of the Ki (pKi) in test [3] was 6.60.

Usually ED50 stands for the midpoint of the dose-response relation. The term pEC50 denotes −log10 of the EC50, conventionally taken in molar units. The Emax is the maximal effect, on the per cent scale that the assay sets. `CC[C@@H]1CN2CC[C@]3(Nc4cccc(O)c4C3=O)C2C[C@@H]1/C(=C\OC)C(=O)OC` (stereo partly drawn) [VM1507, (E)-methyl 2-((1'S,6'S,7'S)-6′-ethyl-4-hydroxy-3-oxo-3′,5′,6′,7′,8′,8a′-hexahydro-2′H-spiro[indoline-2,1′-indolizine]-7′-yl)-3-methoxyacrylate] registered an ED50 in test [5] of 0.18 mg/kg. In addition, in test [6], the pEC50 was 8.70 and the Emax is 124%. Moreover, the pIC50 in test [1] is 6.53. Moreover, the Ki in test [2] was 6.1 nM. This molecule also showed a pKi in test [3] of 8.85. For the same molecule, the Ki in test [4] is 170 nM.

In the case of `CC[C@@H]1CN2CC[C@]3(Nc4cccc(OC(C)=O)c4C3=O)C2C[C@@H]1/C(=C\OC)C(=O)OC` (stereo partly drawn) [VM1510, (E)-methyl 2-((1'S,6'S,7'S)-4-acetoxy-6′-ethyl-3-oxo-3′,5′,6′,7′,8′,8a′-hexahydro-2′H-spiro[indoline-2,1′-indolizine]-7′-yl)-3-methoxyacrylate], the 50% effect level in test [5] (ED50) was put at a dose of 0.38 mg/kg. Further, in test [6], the pEC50 was 8.41 and the Emax was found to be 120%. Moreover, the inhibition constant Ki in test [2] was 20 nM. This molecule also gave a pKi in test [3] of 8.60. In addition, the Ki in test [4] came to 31 nM.

On to `CC[C@@H]1CN2CCC3(Nc4ccc(Cl)c(OC)c4C3=O)C2C[C@@H]1/C(=C\OC)C(=O)OC` (stereo partly drawn) [VM1516, Methyl (E)-2-((6'S,7'S)-5-chloro-6′-ethyl-4-methoxy-3-oxo-2′,3′,6′,7′,8′,8a′-hexahydro-5′H-spiro[indoline-2,1′-indolizin]-7′-yl)-3-methoxyacrylate], for which the inhibition constant Ki in test [2] amounted to 2.1 nM; in test [4], 12 nM. For the same molecule, in test [3], the pKi was 9.39.

As for `CC[C@@H]1CN2CCc3c([nH]c4ccc(Br)c(OC)c34)C2C[C@@H]1/C(=C\OC)C(=O)OC` (stereo partly drawn) [VM1517, Methyl (E)-2-((2S,3S)-9-bromo-3-ethyl-8-methoxy-1,2,3,4,6,7,12,12b-octahydroindolo[2,3-a]quinolizin-2-yl)-3-methoxyacrylate], the Ki amounted to 847 nM in test [2] and 195 nM in test [4]. Besides, the negative logarithm of the Ki (pKi) in test [3] was 6.98.

`CC[C@@H]1CN2CCc3c([nH]c4ccc(-c5ccoc5)c(OC)c34)C2C[C@@H]1/C(=C\OC)C(=O)OC` (stereo partly drawn) [VM1519, Methyl (E)-2-((2S,3S)-3-ethyl-9-(furan-3-yl)-8-methoxy-1,2,3,4,6,7,12,12b-octahydroindolo[2,3-a]quinolizin-2-yl)-3-methoxyacrylate]: the Ki was 653 nM in test [2] and 129 nM in test [4]. The molecule also gave a pKi in test [3] of 6.55.

`CC[C@@H]1CN2CCc3c([nH]c4c(-c5ccoc5)ccc(OC)c34)C2C[C@@H]1/C(=C\OC)C(=O)OC` (stereo partly drawn) [VM1520, Methyl (E)-2-((2S,3S)-3-ethyl-11-(furan-3-yl)-8-methoxy-1,2,3,4,6,7,12,12b-octahydroindolo[2,3-a]quinolizin-2-yl)-3-methoxyacrylate]: the Ki came to 617 nM in test [2] and 185 nM in test [4]. Besides, the negative logarithm of the Ki (pKi) in test [3] was 6.56.

As for `CC[C@@H]1CN2CCc3c([nH]c4ccc(-c5ccccc5)c(OC)c34)C2C[C@@H]1/C(=C\OC)C(=O)OC` (stereo partly drawn) [VM1521, Methyl (E)-2-((2S,3S)-3-ethyl-9-(phenyl)-8-methoxy-1,2,3,4,6,7,12,12b-octahydroindolo[2,3-a]quinolizin-2-yl)-3-methoxyacrylate], the Ki in test [2] is more than 1000 nM; in test [4], 204 nM. This molecule also showed a pKi in test [3] of 6.44.

As to `CC[C@@H]1CN2CC[C@@]3(O)C(=Nc4ccc(-c5ccoc5)c(OC)c43)C2C[C@@H]1/C(=C\OC)C(=O)OC` (stereo partly drawn) [VM1523, Methyl (E)-2-((2S,3S,7aS)-3-ethyl-9-(furan-3-yl)-7a-hydroxy-8-methoxy-1,2,3,4,6,7,7a,12b-octahydroindolo[2,3-a]quinolizin-2-yl)-3-methoxyacrylate], the inhibition constant (Ki) in test [2] is 109 nM; in test [4], 36 nM. Further, the negative logarithm of the Ki (pKi) in test [3] was 7.44.

For the molecule `CC[C@@H]1CN2CC[C@@]3(O)C(=Nc4c(-c5ccoc5)ccc(OC)c43)C2C[C@@H]1/C(=C\OC)C(=O)OC` (stereo partly drawn) [VM1524, Methyl (E)-2-((2S,3S,7aS)-3-ethyl-11-(furan-3-yl)-7a-hydroxy-8-methoxy-1,2,3,4,6,7,7a,12b-octahydroindolo[2,3-a]quinolizin-2-yl)-3-methoxyacrylate], the Ki is more than 1000 nM in test [2] and 338 nM in test [4]. Besides, the pKi in test [3] was 6.93.

As to `CC[C@@H]1CN2CC[C@@]3(N4CCCCC4)C(=Nc4cccc(OC)c43)[C@@H]2C[C@@H]1/C(=C\OC)C(=O)OC` [VM1526, Methyl (E)-2-((2S,3S,7aS,12bS)-3-ethyl-8-methoxy-7a-(piperidin-1-yl)-1,2,3,4,6,7,7a,12b-octahydroindolo[2,3-a]quinolizin-2-yl)-3-methoxyacrylate], the values for the inhibitory constant (Ki) in test [2] and in test [4] were 369 nM and 72 nM, respectively. Besides, the pKi in test [3] is 6.61.

For `COC(=O)CC1CCN2CC[C@@]3(O)C(=Nc4cccc(OC)c43)C2C1` (stereo partly drawn) [VM1531, Methyl 2-((7aS)-7a-hydroxy-8-methoxy-1,2,3,4,6,7,7a,12b-octahydroindolo[2,3-a]quinolizin-2-yl)acetate], the Ki in test [2] and in test [4] was more than 1000 nM in each case. The molecule also gave a pKi in test [3] of less than 6.00.

Turning to `CC[C@@H]1CN2CCc3c(n(Cc4ccccc4)c4cccc(OC)c34)[C@@H]2C[C@@H]1/C(=C\OC)C(=O)OC` [VM1533, Methyl (E)-2-((2S,3S,12bS)-12-benzyl-3-ethyl-8-methoxy-1,2,3,4,6,7,12,12b-octahydroindolo[2,3-a]quinolizin-2-yl)-3-methoxyacrylate], the values for the Ki in test [2] and in test [4] were more than 1000 nM and 395 nM, respectively. In addition, in test [3], the negative-log Ki (pKi) was 7.03.

In test [3], `CC[C@@H]1CN2CCc3c([nH]c4cccc(OC)c34)[C@@H]2C[C@@H]1/C(=C\OC)CO` [VM1534, (E)-2-((2S,3S,12bS)-3-ethyl-8-methoxy-1,2,3,4,6,7,12,12b-octahydroindolo[2,3-a]quinolizin-2-yl)-3-methoxyprop-2-en-1-ol] showed a pKi of less than 6.00.

`C=C(COC)[C@H]1C[C@H]2c3[nH]c4cccc(OC)c4c3CCN2C[C@H]1CC` [VM1535, (2S,3S,12bS)-3-ethyl-8-methoxy-2-(3-methoxyprop-1-en-2-yl)-1,2,3,4,6,7,12,12b-octahydroindolo[2,3-a]quinolizine]: in test [3], the negative-log Ki (pKi) was less than 6.00.

In test [3], `CC[C@@H]1CN2CCc3c([nH]c4cccc(OC)c34)[C@@H]2C[C@@H]1[C@@H](C)COC` [VM1536, (2S,3S,12bS)-3-ethyl-8-methoxy-2-((R)-1-methoxypropan-2-yl)-1,2,3,4,6,7,12,12b-octahydroindolo[2,3-a]quinolizine] gave a pKi of less than 6.00.

For the molecule `CC[C@@H]1CN2CC[C@@]3(OC)C(=Nc4cccc(OC)c43)[C@@H]2C[C@@H]1/C(=C\OC)C(=O)OC` [VM1537, Methyl (E)-2-((2S,3S,7aS,12bS)-3-ethyl-7a,8-dimethoxy-1,2,3,4,6,7,7a,12b-octahydroindolo[2,3-a]quinolizin-2-yl)-3-methoxyacrylate], the figures for the Ki in test [2] and in test [4] were 997 nM and 90 nM, respectively. In addition, the pKi in test [3] was 6.72.

For `CC[C@@H]1CN2CCc3c([nH]c4cccc(-c5ccoc5)c34)[C@@H]2C[C@@H]1/C(=C\OC)C(=O)OC` [VM1539], the Ki in test [2] is 332 nM; in test [3] (read-out: Affinity (Ki nM) MOR-1, 125I-IBNtxA (0.1 nM), CHO membranes, cloned mouse receptor), 52 nM; in test [4], 14 nM.

In the case of `CC[C@@H]1CN2CCc3c(n(C)c4cccc(OC)c34)[C@@H]2C[C@@H]1/C(=C\OC)C(=O)OC` [VM1541, Methyl (E)-2-((2S,3S,12bS)-3-ethyl-8-methoxy-12-methyl-1,2,3,4,6,7,12,12b-octahydroindolo[2,3-a]quinolizin-2-yl)-3-methoxyacrylate], the Ki is more than 1000 nM in test [2] and 143 nM in test [4]. This molecule also gave a negative-log Ki (pKi) in test [3] of 6.79.

For the molecule `CC[C@@H]1CN2CCC3c4c(cccc4OC)NC3[C@@H]2C[C@@H]1/C(=C\OC)C(=O)OC` (stereo partly drawn) [VM1542, Methyl (E)-2-((2S,3S,12bS)-3-ethyl-8-methoxy-1,2,3,4,6,7,7a,12,12a,12b-decahydroindolo[2,3-a]quinolizin-2-yl)-3-methoxyacrylate], the Ki in test [2] came to 374 nM; in test [4], 329 nM. In addition, the pKi in test [3] was 6.94.
